From patent US12611405B2, “Agent that increases the expression of the BCL2-associated agonist of cell death for the treatment of cancer” (LDN Pharma Limited, priority 2017, dated 2026)

Legend:
Type in all cases: cell-based
A549 cells = assay: Two-phase priming with 6-β-naltrexol then GEM or OXP, cell number and viability by trypan blue counting
Procedure: (§1) The impact of combining 6-β-naltrexol with other chemotherapy agents was tested by culturing cells according to a treatment schedule that involved two phases of treatment. The first phase involved priming with 10 nM 6-β-naltrexol or 10 μM 6-β-naltrexol for 48 h, before treatment with another drug for a further 48 h. A549 and HCT116 cells were seeded into 6-well plates at a density of 2×10^5 cells/well and left to adhere overnight. Media was removed after 48 h, and cells were rinsed gently with drug-free medium. Fresh culture medium that contained gemcitabine (GEM) or oxaliplatin (OXP) was then added to the cells. The concentrations of the chemotherapy agents used were approximately ¼ IC50, as established previously [Liu W M, Fowler D W, Smith P, Dalgleish A G. Pre-treatment with chemotherapy can enhance the antigenicity and immunogenicity of tumours by promoting adaptive immune responses. Br J Cancer. 2010 Jan. 5; 102(1):115-23. doi: 10.1038/sj.bjc.6605465.]. Cells were then left for a further 48 h before assessment of cell number of viability by cell counting using trypan blue dye as a way of discriminating live and dead cells. Cytostasis was indicated by a reduction in cell number and no associated reduction in cell viability.

HCT116 cells = assay: as above
Procedure: as §1

[1] = system: BAD expression in HCT116 colon cancer cells; assay: Level of expression of BAD after 48 h culture, immunoblotting
Procedure: In order to determine the effect of 6-β-naltrexol or naltrexone on the level of expression of BAD, pAKT, p21, cyclin B1 and CDK1 HCT116 colon cancer cells were seeded onto 6-well plates at a density of 2×10^5 cell/well, and allowed to adhere overnight. Cells were then cultured in the presence of naltrexone or 6-β-naltrexol at concentrations of 10 nM or 10 μM for a further 48 h. Cells were then harvested and processed for measurements of BAD, or pAKT, p21, cyclin B1 and CDK1 using standard immunoblotting techniques.

MCF-7 cells = assay: 6BN given concomitantly with gemcitabine or oxaliplatin, cell number and viability by trypan blue dye exclusion; conditions: 10 uM 6BN concomitantly with gemcitabine (0.5 uM) or oxaliplatin (0.5 uM), 48 h
Procedure: The effect of combining 6BN with the chemotherapeutic agents gemcitabine or oxaliplatin was tested by culturing MCF-7 cells with 6BN (10 nM or 10 uM) concomitantly with gemcitabine (0.5 uM) or oxaliplatin (0.5 uM). Cell number and viability was then assessed after 48 h using trypan blue dye exclusion as a means to discriminate live/dead cells.

[2] = system: BAD expression in breast cancer cell line MCF-7; assay: BAD protein expression by western blotting; conditions: MCF-7, different concentrations of 6BN (FIG. 3)
[3] = 6-β-naltrexol priming 48 h in an amount raising BAD by at least 10%, then GEM or OXP at approx. ¼ IC50 for 48 h

| SMILES | cytotoxicity of 6-β-naltrexol alone (A549 cells; 10 nM or 10 μM 6BN, no chemotherapeutic agent (FIG. 2c)) | cytotoxic effect of both chemotherapeutic agents (GEM, OXP) after priming (A549 cells; [3]) | cytotoxicity of 6-β-naltrexol alone (HCT116 cells; 10 nM or 10 μM 6BN, no chemotherapeutic agent (FIG. 2d)) | cytotoxic effect of both chemotherapeutic agents (GEM, OXP) after priming (HCT116 cells; [3]) | effect on the level of expression of BAD ([1]; 10 nM) | increase in the level of expression of BAD ([1]; 10 μM) | effect on cell viability of the combination with chemotherapy (MCF-7 cells) | expression of the pro-apoptotic protein BAD [2] | effect on the level of expression of BAD ([1]; 10 μM) |
| --- | --- | --- | --- | --- | --- | --- | --- | --- | --- |
| Oc1ccc2c3c1OC1[C@H](O)CC[C@@]4(O)[C@@H](C2)N(CC2CC2)CC[C@]314 (stereo partly drawn) [6-β-naltrexol, 17-(Cyclopropylmethyl)-4,5-epoxymorphinan-3,6 beta,14-triol] | absence of any independent increase in cytotoxicity | increased | absence of any independent increase in cytotoxicity | increased | negligible effect | more than 10% | greatest effect on cell viability | dose dependent increase | – |
| O=C1CC[C@@]2(O)[C@H]3Cc4ccc(O)c5c4[C@@]2(CCN3CC2CC2)[C@H]1O5 [naltrexone, reference compound] | – | – | – | – | negligible effect | – | – | – | negligible effect |
